Reference: patent US20130283404A1, “EPIGENETICS IN AUTOIMMUNITY” (The Regents of the University of Michigan, priority 2012, published 2013)

How the values were obtained:
[1] = target: T1, PKCδ (Homo sapiens, UniProt Q05655); assay: PKCδ phosphorylation (p-T505, p-Y311) by immunoblot in PMA-stimulated CD4+ T cells; format: cell-based
T1 construct: Following stimulation, whole cell lysates were obtained; endogenous in cells; host or cells: primary CD4+ T cells from healthy donors or lupus patients
T1 sequence (Q05655 whole entry): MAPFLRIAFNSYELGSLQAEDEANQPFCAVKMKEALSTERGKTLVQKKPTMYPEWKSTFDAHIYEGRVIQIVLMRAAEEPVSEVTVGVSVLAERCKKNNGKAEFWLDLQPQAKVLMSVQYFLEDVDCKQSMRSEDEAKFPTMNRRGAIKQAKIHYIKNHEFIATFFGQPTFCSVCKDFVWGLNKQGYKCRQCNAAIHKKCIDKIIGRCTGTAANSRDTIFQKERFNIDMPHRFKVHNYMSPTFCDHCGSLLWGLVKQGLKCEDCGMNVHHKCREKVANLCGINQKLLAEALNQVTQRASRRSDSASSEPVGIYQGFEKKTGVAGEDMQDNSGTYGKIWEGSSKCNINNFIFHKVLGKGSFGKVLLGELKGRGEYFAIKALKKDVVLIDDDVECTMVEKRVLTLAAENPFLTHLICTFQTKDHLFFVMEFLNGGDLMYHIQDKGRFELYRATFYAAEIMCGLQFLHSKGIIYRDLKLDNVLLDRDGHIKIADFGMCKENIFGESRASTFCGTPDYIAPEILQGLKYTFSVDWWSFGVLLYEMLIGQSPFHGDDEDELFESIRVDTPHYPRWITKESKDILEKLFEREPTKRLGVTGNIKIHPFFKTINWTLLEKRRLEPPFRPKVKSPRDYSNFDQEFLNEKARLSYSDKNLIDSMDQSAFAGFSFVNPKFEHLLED
Protocol: Peripheral blood mononuclear cells were isolated from healthy donors or SLE patients by Ficoll-Hypaque density gradient centrifugation. CD4+ T cells were then purified by negative selection using magnetic beads (CD4+ T cell isolation kit; Miltenyi Biotec, Auburn, Calif.) as previously reported (Gorelik, 2007; herein incorporated by reference in its entirety).
(§1) CD4+ T cells were suspended in RPMI 1640 supplemented with 10% fetal calf serum, 2 mM glutamine and penicillin/streptomycin then left unstimulated or stimulated with 50 ng/ml PMA for 15 min at 37° C. Treatment with peroxynitrite was performed at the concentrations and time specified in each experiment and before PMA stimulation. Following stimulation, whole cell lysates were obtained and protein content quantified using the BCA Protein Assay (Pierce, Rockford, Ill.).
(§2) Whole cell protein was fractionated by SDS-PAGE, transferred to nitrocellulose membranes (Schleicher and Schuell, Keene, N.H.) then stained with Ponceau S (Sigma) to verify equal protein loading between lanes. After incubation with the kinase specific antibody then the secondary antibody, protein bands were visualized by chemiluminescence (Amersham, Piscataway, N.J.). The bands on X-ray films were scanned and analyzed with ImageQuant 5.2 software (Amersham) for quantification. Where indicated, blots were stripped and re-probed with the corresponding antibody. Values were normalized to β-actin or the corresponding kinase as indicated.
Experiments were performed during development of embodiments of the present invention to determine if ONOO^− causes the PKCδ T^505 phosphorylation defect observed in lupus T cells. CD4+ T cells from healthy subjects were treated with increasing concentrations of ONOO^− then stimulated with PMA.
The phosphorylation of Y^311 in the PKCδ molecule was also examined, because this amino acid is phosphorylated in cells undergoing oxidative stress (Steinberg, 2004; Kikkawa, 2002; herein incorporated by reference in their entireties). […] It is important to note that p-Y^311 is almost undetectable in resting CD4+ T cells (not shown) similar to p-T^505. […] While PMA promotes phosphorylation on T^505, Y^311 is almost insensitive. In contrast, ONOO^− increases Y311 phosphorylation with a concomitant decrease in p-T^505.

[2] = tested on: PKCα; assay: PKCα activation loop phosphorylation by immunoblot in PMA-stimulated CD4+ T cells; format: cell-based, human; conditions: CD4+ T cells from healthy subjects, increasing ONOO− then PMA
[3] = target: T2, PKCθ (Homo sapiens, UniProt Q04759); assay: PKCθ activation loop phosphorylation by immunoblot in PMA-stimulated CD4+ T cells; format: cell-based; conditions: CD4+ T cells from healthy subjects, increasing ONOO− then PMA
T2 construct: Following stimulation, whole cell lysates were obtained; endogenous in cells; host or cells: primary CD4+ T cells from healthy donors
T2 sequence (Q04759 whole entry): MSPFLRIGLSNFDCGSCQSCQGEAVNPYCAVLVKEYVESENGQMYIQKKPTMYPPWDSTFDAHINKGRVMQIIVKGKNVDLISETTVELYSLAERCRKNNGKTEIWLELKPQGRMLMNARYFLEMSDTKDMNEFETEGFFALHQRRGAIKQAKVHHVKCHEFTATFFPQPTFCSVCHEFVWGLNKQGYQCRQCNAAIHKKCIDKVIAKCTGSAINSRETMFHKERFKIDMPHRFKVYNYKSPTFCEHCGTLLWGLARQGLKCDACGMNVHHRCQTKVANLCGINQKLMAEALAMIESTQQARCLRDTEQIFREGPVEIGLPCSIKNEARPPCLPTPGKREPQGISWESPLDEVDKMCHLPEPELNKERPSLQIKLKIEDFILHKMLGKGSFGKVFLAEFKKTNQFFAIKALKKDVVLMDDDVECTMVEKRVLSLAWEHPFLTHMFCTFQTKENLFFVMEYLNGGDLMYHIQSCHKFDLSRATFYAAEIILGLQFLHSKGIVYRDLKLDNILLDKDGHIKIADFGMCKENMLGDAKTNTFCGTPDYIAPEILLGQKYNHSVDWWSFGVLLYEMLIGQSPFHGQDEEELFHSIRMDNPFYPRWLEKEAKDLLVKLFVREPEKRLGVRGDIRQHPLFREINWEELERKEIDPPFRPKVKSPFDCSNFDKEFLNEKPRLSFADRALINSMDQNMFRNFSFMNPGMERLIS

[4] = tested on: 3-nitrotyrosine proteins; assay: 3NO2-tyrosine protein derivative formation by immunoblot in CD4+ T cells; format: cell-based, human; conditions: CD4+ T cells from a healthy donor, increasing ONOO− then PMA
Protocol: as §1, §2
Experiments were conducted during development of embodiments of the present invention to confirm the effect of ONOO^− by measuring 3NO2-tyrosine protein derivative formation. CD4+ T cells from a healthy donor were treated with increasing ONOO— concentrations then stimulated with PMA. […]

[5] = tested on: ERK; assay: PMA-stimulated ERK phosphorylation by immunoblot in CD4+ T cells; format: cell-based, human; conditions: CD4+ T cells from healthy controls, increasing ONOO− then PMA
Protocol: as §1, §2
This agrees with our previous results showing that PKCδ T505 phosphorylation is upstream of ERK (Gorelik, 2007; herein incorporated by reference in its entirety) and its impairment decreases ERK pathway signaling.

[6] = target: T1, PKCδ; assay: PKCδ nitration: anti-nitrotyrosine immunoprecipitation and immunoblot of CD4+ T cell lysates; format: cell-based; conditions: control T cells treated with ONOO−
Protocol: Immunoprecipitations were performed according to the manufacturer's instructions. Lysates from normal or lupus T cells were incubated with the agarose-conjugated anti-nitrotyrosine antibody overnight at 4° C. Following centrifugation an aliquot of the supernatant (containing non-nitrated proteins) and the beads were resuspended in Laemmli sample buffer and boiled for 5 min. Proteins from each fraction were then analyzed in parallel by SDS-PAGE and immunoblot analysis.
Experiments were conducted during development of embodiments of the present invention to determine whether PKCδ is inactivated in T cells from patients with active lupus through nitration, similar to ONOO treated T cells. CD4+ T cells from 6 lupus patients with active disease (SLEDAI≧4) were stimulated with PMA and nitrated proteins immunoprecipitated from the lysates with anti-3NO2-Tyr antibodies. […] Total and T505 phosphorylated PKCδ content were then compared by immunoblotting.
Nitrated and non-nitrated PKCδ were analyzed as the total PKCδ content in the precipitate and supernatant respectively. The levels of total PKCδ (supernatant+immunoprecipitate) were similar in untreated or ONOO^− treated T cells from control donors and lupus patients (FIGS. 5 A and B). […]

[7] = tested on: ERK; assay: ERK phosphorylation in CD3+ splenic T cells of dnPKCδ/CD2-rtTA mice receiving dox; format: in vivo, mouse; conditions: dox in drinking water two weeks, relative to sucrose controls
Protocol: (§3) Double transgenic mice were generated and maintained in a specific pathogen-free environment. All protocols were approved by the University of Michigan Committee on the Use and Care of Animals (UCUCA). Pups were weaned at 20 days of age and genotyped for the presence of both genes by PCR. Transgene expression was induced by giving 2 mg/ml of dox in the drinking water and supplemented with 5% of sucrose. Double transgenic control animals were given 5% sucrose alone. All the double transgenic mice were developmentally normal. Protein and blood in mouse urine was measured using Chemstrip 6 dipsticks (Roche, Madison, Wis.).
20 μg of protein was diluted in Laemmli loading buffer and denatured by boiling for 5 min followed by electrophoresis in 10-12% SDS-polyacrylamide gels. The fractionated proteins were then electrophoretically transferred to nitrocellulose membranes (Schleicher and Schuell, Keene, N.H.) and stained with Ponceau S (Sigma) to verify equal loading. Membranes were blocked for 1 h in Tris-buffered saline (TBS) containing 0.1% Tween (Sigma) and 5% nonfat dry milk (Bio-Rad). […] For quantitative studies, the bands on X-ray films were scanned and analyzed with ImageQuant 5.2 software (Amersham). […]

[8] = tested on: Dnmt1; assay: Dnmt1 mRNA by real time RT-PCR in spleens of double transgenic mice given dox; format: in vivo, mouse; conditions: dox plus sucrose 2 weeks, spleen RNA
Protocol: as §3
(§4) 150 ng of RNA was converted to cDNA and amplified in one step using a Quanti-Tect SYBR Green RT-PCR kit (Qiagen). CD70 transcripts were quantitated by real-time RT-PCR using a Rotor-Gene 3000 (Corbett Research, Sydney, Australia) and previously published protocols (Gorelik, 2007; herein incorporated by reference in its entirety). The amplification conditions were: 30 min at 50° C., 15 min at 95° C., 40 cycles of 15s at 94° C., 20s at 56° C. and 30s at 72° C. followed by a final extension at 72° for 5 min. Transcript expression levels were normalized to GAPDH. […]
Double transgenic mice were given dox plus sucrose or sucrose alone for 2 weeks. The mice were then sacrificed, RNA isolated from their spleens, then Dnmt1 mRNA levels were measured by real time RT-PCR. […]

[9] = tested on: CD70; assay: CD70 mRNA in CD3+ T cells of dnPKCδ/CD2-rtTA mice with and without dox; format: in vivo, mouse; conditions: dox 2 weeks, relative to controls
Protocol: as §3, §4

[10] = tested on: dnPKCδ/CD2rtTA mice; assay: Serum IgG anti-dsDNA antibodies by ELISA in double transgenic mice given dox; format: in vivo, mouse; conditions: dox in drinking water, serially over time, versus sucrose controls
Protocol: Serum anti-dsDNA IgG antibodies were measured by ELISA. Microtiter plates (Costar, Corning, N.Y.) were coated overnight at 4° C. with 10 μg plasmid dsDNA, then 5 μL of mouse sera were added to each well in 100 μl of buffer and incubated overnight at 4° C. Bound anti-dsDNA antibody was detected by chemiluminescence using HRP-goat anti-mouse IgG (Bethyl Lab Inc) at 450 nm in a spectrophotometer equipped with Softmax Pro software (Molecular Devices, Sunnyvale, Calif.). Murine monoclonal anti-dsDNA antibody (Chemicon) was used for the standard curve.
Experiments were conducted during the development of embodiments of the present invention to determine if the double transgenic develop anti-dsDNA antibodies when given dox. The double transgenic mice were given sucrose or sucrose plus dox in their drinking water, and IgG anti-dsDNA antibodies were measured serially over time by ELISA.

[11] = tested on: dnPKCδ/CD2rtTA mice; assay: Kidney histopathology in double transgenic dnPKCδ/CD2rtTA mice given Doxy; format: in vivo, mouse; conditions: double transgenic dnPKCδ/CD2rtTA mice pretreated with Doxy
Protocol: Double transgenic dnPKCδ/CD2rtTA mice were given 4 mg/ml dox/5% sucrose in their drinking water for 20 wks. Double transgenic animals treated with 5% sucrose were used as controls. At indicated times, their kidneys and lungs were removed. Kidneys were divided in two, one half embedded in O.C.T. (Thermo Fisher) and frozen in liquid nitrogen while the other half and the lung were fixed in 10% formalin, paraffin embedded and stained with hematoxylin and eosin. Five micron sections were cut from the frozen tissue and fixed for 10 minutes in ice cold acetone. 10% horse serum/PBS was used to block non-specific sites and the sections were stained with a 1:50 dilution of biotin-Goat anti-mouse IgG (Fc specific) antibody (US Biologicals)/FITC-Streptavidin (BD Pharmingen) to detect IgG depositions.
Immunohistochemical staining noted IgG deposition along capillary walls and in the mesangial region of glomeruli from transgenic animals pretreated with Doxy (FIG. 11). It was also observed perivascular infiltration of leukocytes in glomeruli (FIG. 12), lungs (FIG. 13) and liver of transgenic animals pretreated with Doxy.

[12] = PMA stimulation, untreated (0 μM ONOO−) CD4+ T cells

In the case of `CCCCCCCCCCCCCC(=O)O[C@@H]1[C@@H](C)[C@@]2(O)[C@@H](C=C(CO)C[C@]3(O)C(=O)C(C)=C[C@@H]23)[C@@H]2C(C)(C)[C@]12OC(C)=O` [PMA], the “PKCδ T505 phosphorylation” value [1, 12] is reported as “substantial increase” and the “PKCδ Y311 phosphorylation” value [1, 12] is reported as “no appreciable effect”.
For `O=NOO` [ONOO^−, peroxynitrite], the “PKCδ T505 phosphorylation” value ([1]; CD4+ T cells from healthy subjects, increasing ONOO− (20-80 μM, 15 min) then PMA) was “concentration dependent decrease”, the “PKCδ Y311 phosphorylation” value ([1]; PMA stimulated CD4+ T cells, increasing ONOO−) was “concentration-dependent increase” and the “PKC α activation loop phosphorylation” value [2] was “not appreciably affected”. The “PKC θ activation loop phosphorylation” value [3] was “not appreciably affected”, the 3-nitrotyrosine derivative formation [4] was “concentration-dependent increase” and the “PMA-stimulated ERK phosphorylation” value [5] was “declines”. The “nitrated PKCδ fraction T505 phosphorylated after PMA stimulation” value [6] was 6% and the PKCδ nitrated ([6]; PMA stimulated) was 74%.
In the case of `C[C@H]1c2cccc(O)c2C(O)=C2C(=O)[C@]3(O)C(O)=C(C(N)=O)C(=O)[C@@H](N(C)C)[C@@H]3[C@@H](O)[C@@H]21` [dox, doxycycline], the “ERK phosphorylation following PMA stimulation” value [7] is reported as “Reduced”, the “decrease in Dnmt1 transcripts” value [8] is reported as “approximately 45%” and the “CD70 mRNA expression” value [9] is reported as “significantly increased”. The “IgG anti-dsDNA antibodies” value [10] was “significantly higher levels” and the kidney histology [11] was “evidence of glomerulonephritis”.
